In brackets after ≈: the same amount, converted by molar mass. Activity calls are given as the source filed them. The calls are words filed in the database; no cut-off is given here.
How the values were obtained:
[1] = tested on: Mycobacterium tuberculosis; assay: Antimycobacterial activity against Mycobacterium tuberculosis H37Rv assessed as bacterial growth inhibition at MIC of 15 uM; format: functional; design: scale not given: the % may be the effect or the level left
[2] = tested on: Mycobacterium tuberculosis; assay: Antimycobacterial activity against Mycobacterium tuberculosis H37Rv assessed as bacterial growth inhibition; format: functional
Salmonella typhi [3] = assay: Antimicrobial activity against Salmonella typhi ATCC 23564 incubated for 24 hrs by broth microdilution method; format: functional, Salmonella enterica subsp. enterica serovar Typhi; details: Salmonella enterica
Escherichia coli [4] = assay: Antimicrobial activity against Escherichia coli ATCC 25922 incubated for 24 hrs by broth microdilution method; format: functional
Pseudomonas aeruginosa [5] = assay: Antimicrobial activity against Pseudomonas aeruginosa ATCC 19429 assessed as zone of inhibition at 4 mg/ml incubated for 24 hrs by agar well diffusion method; format: functional; details: for zone of inhibition at 4000 µg/mL: read-out: IZ
Pseudomonas aeruginosa [6] = assay: Antimicrobial activity against Pseudomonas aeruginosa ATCC 19429 incubated for 24 hrs by broth microdilution method; format: functional
Staphylococcus aureus [7] = assay: Antimicrobial activity against Staphylococcus aureus ATCC 29737 incubated for 24 hrs by broth microdilution method; format: functional
[8] = tested on: Mycobacterium tuberculosis; assay: Antimycobacterial activity against Mycobacterium tuberculosis H37Rv assessed as bacterial growth inhibition at the MIC of 153 uM; format: functional; design: scale not given: the % may be the effect or the level left
[9] = Antioxidant activity assessed as DPPH radical scavenging activity at 250 to 1000 ug/ml after 30 mins by UV-Vis spectrophotometric analysis; format: functional; details: dose microg/ml 250-1000, time 30.0 min
Escherichia coli [10] = assay: Antimicrobial activity against Escherichia coli ATCC 25922 assessed as zone of inhibition at 4 mg/ml incubated for 24 hrs by agar well diffusion method; format: functional; details: read-out: IZ
[11] = tested on: Mycobacterium tuberculosis; assay: Antimycobacterial activity against Mycobacterium tuberculosis H37Rv assessed as bacterial growth inhibition at MIC of 566 uM; format: functional; design: scale not given: the % may be the effect or the level left
Salmonella typhi [12] = assay: Antimicrobial activity against Salmonella typhi ATCC 23564 assessed as zone of inhibition at 4 mg/ml incubated for 24 hrs by agar well diffusion method; format: functional, Salmonella enterica subsp. enterica serovar Typhi; details: Salmonella enterica, read-out: IZ
Staphylococcus aureus [13] = assay: Antimicrobial activity against Staphylococcus aureus ATCC 29737 assessed as zone of inhibition at 4 mg/ml incubated for 24 hrs by agar well diffusion method; format: functional; details: read-out: IZ
MCF7 [14] = assay: Anticancer activity against human MCF7 cells assessed as inhibition of cell growth at 80 ug/ml by sulforhodamine B assay; format: functional, cell-based; details: dose 80.0 µg/ml
[15] = tested on: Mycobacterium tuberculosis; assay: Antimycobacterial activity against Mycobacterium tuberculosis H37Rv assessed as bacterial growth inhibition at MIC of 144 uM; format: functional; design: scale not given: the % may be the effect or the level left
HeLa = assay: Anticancer activity against human HeLa cells assessed as inhibition of cell growth at 40 to 80 ug/ml by sulforhodamine B assay; format: functional, cell-based; details: dose microg/ml 40-80
[16] = tested on: Mycobacterium tuberculosis; assay: Antimycobacterial activity against Mycobacterium tuberculosis H37Rv assessed as bacterial growth inhibition at MIC of 164 uM; format: functional; design: scale not given: the % may be the effect or the level left
[17] = tested on: Mycobacterium tuberculosis; assay: Antimycobacterial activity against Mycobacterium tuberculosis H37Rv assessed as bacterial growth inhibition at MIC of 237 uM; format: functional; design: scale not given: the % may be the effect or the level left
[18] = tested on: Mycobacterium tuberculosis; assay: Antimycobacterial activity against Mycobacterium tuberculosis H37Rv assessed as bacterial growth inhibition at MIC of 614 uM; format: functional; design: scale not given: the % may be the effect or the level left
[19] = tested on: Mycobacterium tuberculosis; assay: Antimycobacterial activity against Mycobacterium tuberculosis H37Rv assessed as bacterial growth inhibition at MIC of 294 uM; format: functional; design: scale not given: the % may be the effect or the level left
[20] = tested on: Mycobacterium tuberculosis; assay: Antimycobacterial activity against Mycobacterium tuberculosis H37Rv assessed as bacterial growth inhibition at the MIC of 266 uM; format: functional; design: scale not given: the % may be the effect or the level left
[21] = tested on: Mycobacterium tuberculosis; assay: Antimycobacterial activity against Mycobacterium tuberculosis H37Rv assessed as bacterial growth inhibition at MIC of 1.4 uM; format: functional; design: scale not given: the % may be the effect or the level left
MCF7 [22] = assay: Anticancer activity against human MCF7 cells assessed as inhibition of cell growth at 20 to 80 ug/ml by sulforhodamine B assay; format: functional, cell-based; details: dose microg/ml 20-80
[23] = tested on: Mycobacterium tuberculosis; assay: Antimycobacterial activity against Mycobacterium tuberculosis H37Rv assessed as bacterial growth inhibition at MIC of 34 uM; format: functional; design: scale not given: the % may be the effect or the level left
[24] = tested on: Mycobacterium tuberculosis; assay: Antimycobacterial activity against Mycobacterium tuberculosis H37Rv assessed as bacterial growth inhibition at MIC of 1343 uM; format: functional; design: scale not given: the % may be the effect or the level left
[25] = tested on: Mycobacterium tuberculosis; assay: Antimycobacterial activity against Mycobacterium tuberculosis H37Rv assessed as bacterial growth inhibition at MIC of 31 uM; format: functional; design: scale not given: the % may be the effect or the level left

Row | SMILES | MIC [2] [µM] | MIC (Salmonella typhi [3]) [µM] | MIC (Escherichia coli [4]) [µM] | zone of inhibition at 4000 µg/mL (Pseudomonas aeruginosa [5]) [mm] | MIC (Pseudomonas aeruginosa [6]) [µM] | MIC (Staphylococcus aureus [7]) [µM] | Activity [9] | zone of inhibition at 4000 µg/mL (Escherichia coli [10]) [mm] | zone of inhibition at 4000 µg/mL (Salmonella typhi [12]) [mm] | zone of inhibition at 4000 µg/mL (Staphylococcus aureus [13]) [mm] | other results
1 | CC[C@@H](CO)NCCN[C@@H](CC)CO [ETHAMBUTOL] | 15 (≈ 3.06 µg/mL) |  |  |  |  |  |  |  |  |  | Activity [1]: 99%
2 | O=C(c1ccncc1)N1NC(c2ccc(Br)cc2)=CC1c1ccccc1 (configuration not stated) | 153 (≈ 62.2 µg/mL) | 492 (≈ 200 µg/mL) | 123 (≈ 50 µg/mL) | 10.3 | 123 (≈ 50 µg/mL) | 492 (≈ 200 µg/mL) | Active |  |  |  | Activity [8]: 97%
3 | O=C(c1ccncc1)N1NC(c2ccc(Cl)cc2Cl)=CC1c1cccc([N+](=O)[O-])c1 (configuration not stated) | 566 (≈ 250 µg/mL) | 453 (≈ 200 µg/mL) | 113 (≈ 49.9 µg/mL) |  | 453 (≈ 200 µg/mL) | 226 (≈ 99.7 µg/mL) | Active | 12.4 | 21 | 23.8 | Activity [11]: 95%
4 | COc1cccc(C2=CC(c3ccc(Br)cc3)N(C(=O)c3ccncc3)N2)c1 (configuration not stated) | 144 (≈ 62.8 µg/mL) | 114 (≈ 49.7 µg/mL) | 57 (≈ 24.9 µg/mL) | 14.3 | 229 (≈ 99.9 µg/mL) | 14 (≈ 6.11 µg/mL) | Active | 16.4 | 22.4 | 26.4 | Activity (MCF7 [14]): Active; Activity [15]: 98%; Activity (HeLa): Active
5 | O=C(c1ccncc1)N1NC(c2ccc(Cl)cc2)=CC1c1ccc(F)cc1 (configuration not stated) | 164 (≈ 62.3 µg/mL) | 263 (≈ 99.9 µg/mL) | 32 (≈ 12.2 µg/mL) | 12.3 | 131 (≈ 49.8 µg/mL) | 131 (≈ 49.8 µg/mL) | Active | 15 |  | 22.3 | Activity [16]: 96%
6 | CN[C@@H]1[C@H](O[C@H]2[C@H](O[C@H]3[C@H](O)[C@@H](O)[C@H](N=C(N)N)[C@@H](O)[C@@H]3N=C(N)N)O[C@@H](C)[C@]2(O)C=O)O[C@@H](CO)[C@H](O)[C@H]1O [STREPTOMYCIN] |  | 5.3 (≈ 3.08 µg/mL) | 5.3 (≈ 3.08 µg/mL) | 25 | 5.3 (≈ 3.08 µg/mL) | 5.3 (≈ 3.08 µg/mL) |  | 22.2 | 29.1 | 30.6 | 
7 | Cc1ccc(C2=CC(c3ccc(Br)cc3)N(C(=O)c3ccncc3)N2)cc1 (configuration not stated) | 237 (≈ 99.6 µg/mL) | 237 (≈ 99.6 µg/mL) | 118 (≈ 49.6 µg/mL) | 20.4 | 14 (≈ 5.88 µg/mL) | 14 (≈ 5.88 µg/mL) | Active |  |  | 25.4 | Activity [17]: 97%
8 | O=C(c1ccncc1)N1NC(c2ccc(Cl)cc2)=CC1c1ccc([N+](=O)[O-])cc1 (configuration not stated) | 614 (≈ 250 µg/mL) | 245 (≈ 99.7 µg/mL) | 122 (≈ 49.6 µg/mL) | 14.2 | 122 (≈ 49.6 µg/mL) | 245 (≈ 99.7 µg/mL) | Active | 17.1 | 18.3 | 23.4 | Activity [18]: 95%
9 | CC1(C)S[C@@H]2[C@H](NC(=O)[C@H](N)c3ccccc3)C(=O)N2[C@H]1C(=O)O [AMPICILLIN] |  |  | 8.9 (≈ 3.11 µg/mL) |  |  | 8.9 (≈ 3.11 µg/mL) |  | 24.4 |  | 27.3 | 
10 | O=C(c1ccncc1)N1NC(c2ccc(F)cc2)=CC1c1ccc(Br)cc1 (configuration not stated) | 294 (≈ 125 µg/mL) | 117 (≈ 49.6 µg/mL) | 58 (≈ 24.6 µg/mL) | 12.4 | 29 (≈ 12.3 µg/mL) | 235 (≈ 99.7 µg/mL) | Active |  | 22.3 | 17.8 | Activity [19]: 96%
11 | Cc1ccc(C2C=C(c3ccc(Cl)cc3)NN2C(=O)c2ccncc2)cc1 (configuration not stated) | 266 (≈ 100 µg/mL) | 533 (≈ 200 µg/mL) | 533 (≈ 200 µg/mL) |  | 133 (≈ 50 µg/mL) | 66 (≈ 24.8 µg/mL) | Active | 12.6 | 21.4 |  | Activity [20]: 98%
12 | NNC(=O)c1ccncc1 [ISONIAZID] | 1.4 (≈ 0.192 µg/mL) |  |  |  |  |  |  |  |  |  | Activity [21]: 99%
13 | Cc1ccc(C2=CC(c3ccc(F)cc3)N(C(=O)c3ccncc3)N2)cc1 (configuration not stated) | 34 (≈ 12.2 µg/mL) | 278 (≈ 99.9 µg/mL) | 139 (≈ 50 µg/mL) |  | 139 (≈ 50 µg/mL) | 17 (≈ 6.11 µg/mL) | Active |  |  | 27 | Activity (MCF7 [22]): Active; inhibition zone (IZ) (Pseudomonas aeruginosa [5]): Active; Activity [23]: 99%
14 | O=C(c1ccncc1)N1NC(c2ccccc2)=CC1c1cccc([N+](=O)[O-])c1 (configuration not stated) | 1340 (≈ 500 µg/mL) | 537 (≈ 200 µg/mL) | 268 (≈ 99.8 µg/mL) | 12.3 | 67 (≈ 24.9 µg/mL) | 537 (≈ 200 µg/mL) | Active | 10.2 | 15.3 | 8.4 | Activity [24]: 95%
15 | COc1cccc(C2=CC(c3ccc(Cl)cc3)N(C(=O)c3ccncc3)N2)c1 (configuration not stated) | 31 (≈ 12.1 µg/mL) | 511 (≈ 200 µg/mL) | 127 (≈ 49.8 µg/mL) | 12.3 | 63 (≈ 24.7 µg/mL) | 31 (≈ 12.1 µg/mL) | Active | 12.3 |  | 27.2 | Activity [25]: 99%
